Calls of active or inactive are those of the source. The calls are words filed in the database; no cut-off is given here.
How the values were obtained:
[1] = system: Plasmodium falciparum; assay: Antiplasmodial activity against sorbitol-synchronized ring stage chloroquine sensitive Plasmodium falciparum 3D7 infected in human erythrocytes assessed as parasitic growth inhibition incubated for 48 to 50 hrs by SYBR Green 1 based microtiter plate spectrofluorimeteric analysis; assay type: functional, organism-based; conditions: 3D7, Erythrocyte
[2] = system: Plasmodium falciparum; assay: Antiplasmodial activity against sorbitol-synchronized ring stage chloroquine resistant Plasmodium falciparum W2 infected in human erythrocytes assessed as parasitic growth inhibition incubated for 48 to 50 hrs by SYBR Green 1 based microtiter plate spectrofluorimeteric analysis; assay type: functional, organism-based; conditions: W2, Erythrocyte
[3] = Resistance index, ratio of IC50 for antiplasmodial activity against chloroquine sensitive Plasmodium falciparum 3D7 infected in human erythrocytes to antiplasmodial activity against chloroquine resistant Plasmodium falciparum W2 infected in human erythrocytes; assay type: functional
[4] = Inhibition of Plasmodium falcipain-2 using Z-Leu-Arg-AMC as substrate preincubated for 30 mins followed by substrate addition and measured after 30 mins by microtiter plate spectrofluorimeteric analysis
[5] = Inhibition of Plasmodium falcipain-3 using Z-Leu-Arg-AMC as substrate preincubated for 30 mins followed by substrate addition and measured after 30 mins by microtiter plate spectrofluorimeteric analysis
[6] = Selectivity index, ratio of IC50 for cytotoxicity against African green monkey Vero cells to antiplasmodial activity against sorbitol-synchronized ring stage chloroquine sensitive Plasmodium falciparum 3D7 infected in human erythrocytes; assay type: toxicity, cell-based; conditions: read-out: Ratio IC50
[7] = Selectivity index, ratio of IC50 for cytotoxicity against human […] cells to antiplasmodial activity against sorbitol-synchronized ring stage chloroquine sensitive Plasmodium falciparum 3D7 infected in human erythrocytes; assay type: cell-based; conditions: read-out: Ratio IC50
[8] = Selectivity index, ratio of IC50 for cytotoxicity against human […] cells to antiplasmodial activity against sorbitol-synchronized ring stage chloroquine resistant Plasmodium falciparum W2 infected in human erythrocytes; assay type: cell-based; conditions: read-out: Ratio IC50
[9] = system: A549; assay: Cytotoxicity against human A549 cells assessed as inhibition of cell growth incubated for 24 hrs by MTT assay; assay type: functional, cell-based; conditions: A549, 24 h
[10] = Cytotoxicity against African green monkey Vero cells assessed as reduction in cell viability incubated for 72 hrs by MTT assay; assay type: toxicity, cell-based; conditions: African green monkey (Chlorocebus sabaeus)
[11] = Selectivity index, ratio of IC50 for cytotoxicity against African green monkey Vero cells to antiplasmodial activity against sorbitol-synchronized ring stage chloroquine resistant Plasmodium falciparum W2 infected in human erythrocytes; assay type: toxicity, cell-based; conditions: read-out: Ratio IC50
[12] = system: Plasmodium falciparum; assay: Antiplasmodial activity against ring-stage Plasmodium falciparum assessed as enlarged feeding vacuoles with hemoglobin accumulation at 3 times IC50 concentration measured after 48 hrs by Giemsa staining based analysis; assay type: functional, organism-based
[13] = system: Plasmodium falciparum; assay: Antiplasmodial activity against ring stage of Plasmodium falciparum assessed as developmental arrest at early trophozoite stage at 3 times IC50 concentration measured after 48 hrs by Giemsa staining based analysis; assay type: functional, organism-based
[14] = system: Plasmodium falciparum; assay: Antiplasmodial activity against ring-stage Plasmodium falciparum assessed as reduction in formation of new rings at 3 times IC50 concentration measured after 48 hrs by Giemsa staining based analysis; assay type: functional, organism-based
[15] = Hemolytic activity in human Red blood cells assessed as hemolysis at 100 uM incubated for 2 hrs by spectrofluorimetric analysis; assay type: toxicity, cell-based; conditions: erythrocyte
[16] = Inhibition of Plasmodium falciparum ATP4

Structure (SMILES) | IC50 [1] [µM] | IC50 [2] [µM] | Ratio IC50 [3] | IC50 [4] [µM] | IC50 [5] [µM] | selectivity ratio [6] | selectivity ratio [7] | selectivity ratio [8] | IC50 [9] [µM] | IC50 at 72 h [10] [mM] | selectivity ratio [11] | Activity [12] | Activity [13] | Activity [14] | Activity [15] | IC50 [16] [nM]
O=C1CC2(CCN(c3nc(N4CCN(C(=S)Nc5ccc(Br)cc5)CC4)nc4ccccc34)CC2)Oc2ccccc21 | 7.29 | 4.84 | 1.51 |  |  |  |  |  |  |  |  |  |  |  |  | 
CC(C)C[C@H](NC(=O)[C@@H]1O[C@H]1C(=O)O)C(=O)NCCCCN=C(N)N |  |  |  | 0.0544 | 0.116 |  |  |  |  |  |  |  |  |  |  | 
O=C1CC2(CCN(c3nc(N4CCN(C(=S)Nc5ccc(F)c(F)c5)CC4)nc4ccccc34)CC2)Oc2ccccc21 | 17.7 | > 15 |  |  |  |  |  |  |  |  |  |  |  |  |  | 
Cc1ccc(NC(=S)N2CCN(c3nc(N4CCC5(CC4)CC(=O)c4ccccc4O5)c4ccccc4n3)CC2)cc1 | 16.1 | > 15 |  |  |  |  |  |  |  |  |  |  |  |  |  | 
O=C1CC2(CCN(c3nc(N4CCN(C(=S)Nc5ccc(OC(F)(F)F)cc5)CC4)nc4ccccc34)CC2)Oc2ccccc21 | 3.88 | > 15 |  |  |  |  |  |  |  |  |  |  |  |  |  | 
O=C1CC2(CCN(c3nc(N4CCN(C(=S)Nc5cccc(C(F)(F)F)c5)CC4)nc4ccccc34)CC2)Oc2ccccc21 | 7.97 | > 15 |  |  |  |  |  |  |  |  |  |  |  |  |  | 
O=C1CC2(CCN(c3nc(N4CCN(C(=S)Nc5ccc(F)cc5)CC4)nc4ccccc34)CC2)Oc2ccccc21 | 4.66 | 8.98 | 0.52 | 11.4 | 14.4 | > 215 | 65.8 | 34.1 | 307 | > 1 | > 111 |  |  |  |  | 
O=C1CC2(CCN(c3nc(N4CCN(C(=S)Nc5ccccc5Cl)CC4)nc4ccccc34)CC2)Oc2ccccc21 | 3.98 | 4.43 | 0.9 | 4.6 | 5.9 | > 251 | 16.9 | 15.2 | 67.2 | > 1 | > 226 | Active | Active | Active | Non-toxic | 
CCc1nc(N)nc(N)c1-c1ccc(Cl)cc1 [PYRIMETHAMINE] |  | 0.129 |  |  |  |  |  |  |  |  |  |  |  |  |  | 
O=C1CC2(CCN(c3nc(N4CCN(C(=S)Nc5cccc(Cl)c5)CC4)nc4ccccc34)CC2)Oc2ccccc21 | 6.37 | > 15 |  |  |  |  |  |  |  |  |  |  |  |  |  | 
O=C1CC2(CCN(c3nc(N4CCN(C(=S)Nc5ccc(F)cc5F)CC4)nc4ccccc34)CC2)Oc2ccccc21 | 5.28 | > 15 |  |  |  |  |  |  |  |  |  |  |  |  |  | 
COc1cccc(NC(=S)N2CCN(c3nc(N4CCC5(CC4)CC(=O)c4ccccc4O5)c4ccccc4n3)CC2)c1 | 5.68 | 3.87 | 1.47 |  |  |  |  |  |  |  |  |  |  |  |  | 
O=C1CC2(CCN(c3nc(N4CCN(C(=S)Nc5ccccc5)CC4)nc4ccccc34)CC2)Oc2ccccc21 | 24.7 | > 15 |  |  |  |  |  |  |  |  |  |  |  |  |  | 
O=C1CC2(CCN(c3nc(N4CCN(C(=S)NCc5ccccc5)CC4)nc4ccccc34)CC2)Oc2ccccc21 | 4.79 | 14.4 | 0.33 | 10.4 | 10.8 | > 209 | 44.7 | 14.9 | 214 | > 1 | > 69.6 |  |  |  |  | 
COc1ccc(NC(=S)N2CCN(c3nc(N4CCC5(CC4)CC(=O)c4ccccc4O5)c4ccccc4n3)CC2)cc1 | 23.3 | > 15 |  |  |  |  |  |  |  |  |  |  |  |  |  | 
COc1ccccc1NC(=S)N1CCN(c2nc(N3CCC4(CC3)CC(=O)c3ccccc3O4)c3ccccc3n2)CC1 | 3.42 | 5.12 | 0.66 | 5.4 | 6.2 | > 292 | 24.1 | 16.1 | 82.5 | > 1 | > 195 | Active | Active | Active | Non-toxic | 
O=C1CC2(CCN(c3nc(N4CCN(C(=S)Nc5ccc(F)c(Cl)c5)CC4)nc4ccccc34)CC2)Oc2ccccc21 | 3.18 | 3.56 | 0.89 | 3.9 | 4.9 | > 314 | 18.3 | 16.4 | 58.3 | > 1 | > 281 | Active | Active | Active | Non-toxic | 
Cc1cccc(C)c1NC(=S)N1CCN(c2nc(N3CCC4(CC3)CC(=O)c3ccccc3O4)c3ccccc3n2)CC1 | 4.83 | 7.12 | 0.68 | 5.9 | 6.4 | > 207 | 21 | 14.3 | 102 | > 1 | > 140 | Active | Active | Active | Non-toxic | 
C[C@H]1Cc2c([nH]c3cc(Cl)c(F)cc23)[C@@]2(N1)C(=O)Nc1ccc(Cl)cc12 [CIPARGAMIN] |  |  |  |  |  |  |  |  |  |  |  |  |  |  |  | 1
